# Test results as given in patent publication US7183430B2, “Compounds which can block the response to chemical substances or thermal stimuli or mediators of inflammation of nociceptors, production method thereof and compositions containing same” (Diverdrugs, S.L., priority 2002, dated 2007).
# Legend:
# [1] = tested on: primary trigeminal neuronal cultures; experiment: entrance of calcium cation stimulated by capsaicin in neuronal cultures; assay type: cell-based
# [2] = 52° C. hot plate nociception test; assay type: in vivo; settings: mice, 10 mg/Kg intraperitoneal, carrier 11.5±2 s
# Procedure: A 52° C. hot plate test was used as a nociception test, where the latency time to paw withdrawal or jump of the animal was monitored. The compounds were intraperitoneally administered to mice at a dose of 10 mg/Kg. The behavioral test was carried out at 30, 60 and 120 minutes after the administration of the compounds.
# [3] = tested on: afferent nerve fibers from the knee of the rat; experiment: nervous activity caused by capsaicin in afferent nerve fibers from the knee
# [4] = acute inflammatory pain model caused by subcutaneous capsaicin (paw lick latency); assay type: in vivo; settings: mice, intraperitoneal; for behavioral latency time (paw lick): carrier 20±5 s
# Procedure: The analgesic activity of the products was determined by assessing their effect in the acute inflammatory pain model caused by subcutaneous administration of the capsaicin irritant. Administration of this vanilloid causes a neurogenic inflammation in animals with acute painful burning sensation resulting in thermal and mechanical hyperalgesia. The behavioral latency time to paw lick after intraperitoneal administration of the compounds to mice at different doses was monitored.
structure (smiles),measurement,setting,value
N=C(N)NCCC[C@H](N)C(=O)N(CCc1ccc(Cl)cc1Cl)CC(=O)N(CCc1ccc(Cl)cc1Cl)CC(N)=O [Example 1],inhibition of the entrance of calcium cation stimulated by capsaicin,[1],85%
same,latency to the first response (paw withdrawal or jump),[2]; 30 minutes after,20 ± 4 s
same,latency to the first response (paw withdrawal or jump),[2]; 60 minutes after,18 ± 3 s
same,latency to the first response (paw withdrawal or jump),[2]; 120 minutes after,18 ± 4 s
same,block of the nervous activity caused by capsaicin,[3],80%
same,behavioral latency time (paw lick),[4]; 2 mg/Kg,90 ± 10 s
same,behavioral latency time (paw lick),[4]; 5 mg/Kg,190 ± 50 s
same,behavioral latency time (paw lick),[4]; 10 mg/Kg,250 ± 40 s
same,duration of the behavioral response,[4]; 2 to 10 mg/Kg,decreased as the dose of the compound increased
